According to patent EP2012792B1, “USE OF A COMPOUND INDUCING AN INCREASE OF FREE SEROTONIN RATE IN THE BODY, FOR PREPARING A MEDICINE FOR TREATING SKELETAL MUSCLE DEGENERATION OF GENETIC ORIGIN” (Association Française contre les Myopathies, priority 2006, dated 2007):
Where a name gives a salt, the structure may show the parent alone.

Columns and labels:
[1] = system: souche de nématode dépourvue de dystrophine; test: Muscle degeneration and paralysis test in dystrophin-deficient nematode strain (degenerative myopathy model); type: in vivo, Caenorhabditis elegans; settings: 7 days of culture at 15°C; for Diminution de la dégénérescence en %: untreated = 0; for Pourcentage d'animaux paralysés à J7: untreated = 100
Description: Les composés ont été testés sur une souche de nématode dépourvue de dystrophine (Gieseler et al., Current Biology, 2000, vol. 10, p1092-1097) et (Ségalat, Neuromuscular Disorders, 2002, Suppl: S105-9). Cette souche est utilisée comme modèle de myopathie dégénérative. Dans cette souche, jusqu'à 30% des cellules musculaires servant à la locomotion (muscles longitudinaux) dégénèrent à l'état adulte (7 jours à 15°C), ce qui se traduit par une paralysie progressive des animaux.
Les composés sont administrés par mélange avec la gélose sur laquelle sont cultivés les animaux. Ils pénètrent par diffusion à travers la cuticule des animaux.
L'effet des composés sur la dégénérescence musculaire est évalué par 1) l'observation du phénotype des animaux (paralysie), et 2) par l'examen cytologique de la dégénérescence musculaire au moyen de marqueurs musculaires : rodamine-phalloidine et anticorps anti-myosine. Cet examen permet de compter le nombre de cellules musculaires en dégénérescence ou mortes (Gieseler et al., 2000, supra).

[2] = system: souris mdx (génotype C57/BL6 mdx5cv); test: mdx mouse: number of centronucleated fibres (test of Shavlakadze et al.); type: in vivo; settings: p<0,1%
Description: (§1) J. Pathol. […] 2002 Aug; 444(5), 634-43. […] 2000 Sep; 11(9), 725-8.
(§2) Elles sont testées à 6 semaines.
(§3) Il a également été démontré que la Fluoxetine chlorhydrate (11 mg/kg/jour), réduit le nombre de fibres centronucléées de 20% environ (p<0,1%).

[3] = system: souris mdx (génotype C57/BL6 mdx5cv); test: mdx mouse: histology, fibre size dispersion; type: in vivo; settings: 40mg/jour/kg oral in food, treated from 2 to 6 weeks of age, tested at 6 weeks; versus untreated animals
Description: as §1, §2

[4] = system: souris mdx (génotype C57/BL6 mdx5cv); settings: 40mg/jour/kg oral in food, treated from 2 to 6 weeks of age
Description: Les tests effectués chez la souris sont de plusieurs types : histologiques, fonctionnels sur l'animal entier, et fonctionnels sur muscles disséqués. Les tests sont effectués sur la souris mdx (génotype C57/BL6 mdx5cv), modèle murin de myopathie dégénérative. Ces tests sont notamment détaillés dans les publications suivantes auxquelles on pourra se référer : • De Luca A, et al. Am. J. Pathol. 2005 Feb; 166(2), 477-89. • Divet A, et al. Pflugers Arch. 2002 Aug; 444(5), 634-43. Epub 2002 Jul 10. • Rafael JA, et al. Mamm Genome. 2000 Sep; 11(9), 725-8.
Les composés sont administrés oralement aux souris dans leur nourriture. Les souris sont traitées de l'âge de 2 semaines à 6 semaines. Elles sont testées à 6 semaines.

[5] = system: protéolyse du muscle de C. elegans; test: Muscle proteolysis model of C. elegans representative of cachexia (protocol of Zdinak et al.); type: in vivo; settings: relative to control; concentration not given
Description: c) Concernant l'action sur la cachexie, il a également pu être montré sur un modèle de protéolyse du muscle de C. elegans representatif de la cachexie, et en utilisant le protocole décrit par Zdinak et al., dans Transgene-coded chimeric proteins as reporters of intracellular proteolysis: starvation-induced catabolism of a lacZ fusion protein in muscle cells of Caenorhabditis elegans, J Cell Biochem. 1997 Oct 1;67(1):143-53 que la sérotonine et l'imipramine chlorhydrate réduisent fortement cette protéolyse (20% de la protéolyse du témoin dans les 2 cas).

[6] = system: souris mdx (génotype C57/BL6 mdx5cv); test: mdx mouse: diaphragm necrosis (test of Raymackers et al.); type: in vivo; settings: 15 mg/kg/jour oral in food; p<5%
Description: as §1, §2, §3

[7] = 0,1 mg/ml (0,3 mM) in culture agar
[8] = 0,05 mg/ml (0,15 mM) in culture agar
[9] = 4 mg/ml (10 mM) in culture agar
[10] = 0,1 mg/ml (0,2 mM) in culture agar

SMILES: CN(C)CCC=C1c2ccccc2CCc2ccccc21 [Amytriptyline chlorhydrate, amitriptyline]
- Diminution de la dégénérescence en % [1, 7]: 61%
- Pourcentage d'animaux paralysés à J7 [1, 7]: 52%

SMILES: CNCCCN1c2ccccc2CCc2ccccc21 [Desipramine chlorhydrate, désipramine]
- Diminution de la dégénérescence en % [1, 7]: 58%
- Pourcentage d'animaux paralysés à J7 [1, 7]: 58%

SMILES: CNCCC(Oc1ccc(C(F)(F)F)cc1)c1ccccc1 (stereo not shown) [Fluoxetine chlorhydrate, fluoxétine]
- réduction du nombre de fibres centronucléées ([2]; 11 mg/kg/jour oral in food): ~20%
- Diminution de la dégénérescence en % [1, 8]: 51%
- Pourcentage d'animaux paralysés à J7 [1, 8]: 60%

SMILES: CN(C)CCCN1c2ccccc2CCc2ccccc21 [Imipramine chlorhydrate, imipramine]
- Réduction de la dispersion de taille des fibres (marqueur de dégénérescence) [3]: 26%
- Augmentation de la tension développée par le muscle EDL sur animaux vivants ([4]; tested at 6 weeks): 20%
- Augmentation du score avec le test d'agrippement ([4]; tested at 6 weeks): 48%
- Augmentation de la tension maximale développée par le muscle isolé ([4]; triton-skinned fibres): 50%
- Diminution de la dégénérescence en % [1, 7]: 37%
- Pourcentage d'animaux paralysés à J7 [1, 7]: 65%
- protéolyse [5]: 20 % de la protéolyse du témoin

SMILES: NCCc1c[nH]c2ccc(O)cc12 [Sérotonine, 5-hydrotryptamine]
- Diminution de la dégénérescence en % [1, 9]: 73%
- Pourcentage d'animaux paralysés à J7 [1, 9]: 41%
- dégénérescence musculaire ([1]; result in words): diminue également la dégénérescence musculaire
- protéolyse [5]: 20 % de la protéolyse du témoin

SMILES: CC(CN(C)C)CN1c2ccccc2CCc2ccccc21 (stereo not shown) [Trimipramine maleate, trimipramine]
- nombre de fibres centronucléées ([2]; 15 mg/kg/jour oral in food, result in words): réduit
- nécrose du diaphragme [6]: réduit la nécrose du diaphragme
- Diminution de la dégénérescence en % [1, 10]: 53%
- Pourcentage d'animaux paralysés à J7 [1, 10]: 60%
